Experimental findings from ChEMBL document CHEMBL1201862, “PubChem BioAssay data set” (2004) are described below.

Common to all, as to experiment: NCI-60 cell line screen, 48 h
Experiment [1] deals with 786-0.
The test system of experiment [2] is A549.
In experiment [3] the test system is CCRF-CEM.
Experiment [4] relates to COLO 205.
The test system of experiment [5] is DU-145.
Experiment [6] deals with HL-60.
Experiment [7] concerns HOP-92.
Experiment [8] deals with KM12.
Experiment [9] has as its system MDA-MB-435.
Experiment [10] has as its system Malme-3M.
Experiment [11] has as its system OVCAR-4.
Experiment [12] deals with OVCAR-5.
For experiment [13], the system named is PC-3.
Experiment [14] concerns SK-MEL-5.
Experiment [15] relates to SNB-75.
Experiment [16] concerns U-251.
Experiment [17] relates to UO-31.
Experiment [18] deals with SF-295.
Experiment [19] has as its system SN12C.

The structures appear in SMILES notation.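 Following 48 hours of exposure in 96-well plates, responses at five concentrations were used to interpolate endpoints linearly. Abbreviation: GI50, concentration required for 50% inhibition of growth.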 The source made the active and inactive calls. Cut-off read from the data, not from the text of the source: active = GI50 up to about 1.1 µM and inactive = higher. Some results are limits rather than exact numbers.

In the case of `COc1ccc(OC)c(CNc2ccc(C(=O)O)cc2)c1`, the GI50 in experiment [1], in [2], in experiment [3], in experiment [4], in experiment [5] and in [6] was > 100 µM (inactive) in each case. In addition, the GI50 in experiment [7], in experiment [8], in experiment [9], in experiment [10], in experiment [11] and in experiment [12] was > 100 µM (inactive) throughout. Moreover, the GI50 in experiment [13], in [14], in experiment [15], in experiment [16] and in experiment [17] was > 100 µM (inactive) each time.
Take `COC(=O)c1c(O)ccc2c1c1c(n2-c2ccc(OC)cc2)C(=O)c2ccccc2C1=O`: the GI50 in experiment [1] is 15.7 µM (inactive); in experiment [2] it was 10.1 µM (inactive); in experiment [3] it was 15.2 µM (inactive); in [4], 1.94 µM (inactive); in experiment [5] it was 21.5 µM (inactive); in experiment [6], > 100 µM (inactive). The GI50 is 14.8 µM (inactive) in [7]; 14.1 µM (inactive) in experiment [8]; 66.8 µM (inactive) in experiment [9]; 24.4 µM (inactive) in experiment [10]; 18.6 µM (inactive) in experiment [11]; 30.7 µM (inactive) in experiment [12]. Also, the GI50 was 20.7 µM (inactive) in experiment [13]; 18.7 µM (inactive) in experiment [18]; 44.3 µM (inactive) in [14]; 28.9 µM (inactive) in experiment [19]; 23.9 µM (inactive) in experiment [15]; 13 µM (inactive) in experiment [16]. Also, the GI50 in [17] is 11.9 µM (inactive).
As for `CNC1Cc2c[nH]c3cccc(c23)C12C=C(C)C(=O)O2` (configuration not stated), the GI50 in [1], in experiment [2], in experiment [3], in experiment [4], in experiment [5] and in experiment [6] was > 100 µM (inactive) in each case. Further, the GI50 in [7], in experiment [8], in [9], in [10], in [11] and in experiment [12] was > 100 µM (inactive) in each case. The GI50 in experiment [13], in [18], in [14], in experiment [19], in experiment [15] and in [16] was > 100 µM (inactive) each time. Also, the GI50 in experiment [17] is > 100 µM (inactive).
In the case of `C=CCCON(C(=O)OC(C)(C)C)C(C)(C)C`, the GI50 in experiment [1], in [2], in experiment [3], in [4], in experiment [5] and in [6] was > 100 µM (inactive) throughout. In addition, the GI50 in experiment [7], in experiment [8], in [9], in experiment [10], in experiment [12] and in [13] was > 100 µM (inactive) in each case. Moreover, the GI50 in [18], in experiment [14], in [19], in [15], in experiment [16] and in experiment [17] was > 100 µM (inactive) each time.
As to `O=C1CN(c2ccc(Cl)cc2)C(=O)CN1NCNN1CC(=O)N(c2ccc(Cl)cc2)CC1=O`, the GI50 in experiment [1], in [2], in experiment [3], in experiment [4], in experiment [5] and in experiment [6] was > 100 µM (inactive) throughout. Further, the GI50 in experiment [7], in experiment [8], in [9], in experiment [10], in experiment [11] and in experiment [12] was > 100 µM (inactive) throughout. For the same molecule, the GI50 in experiment [13], in experiment [18], in experiment [14], in experiment [19], in experiment [15] and in experiment [16] was > 100 µM (inactive) throughout. In addition, the GI50 in [17] is > 100 µM (inactive).
For `COc1c(O)ccc2c1CN1CCc3cc4c(cc3C1C2)OCO4` (configuration not stated), the GI50 in experiment [1] is 23.9 µM (inactive); in [2], 32.5 µM (inactive); in [3], 30.8 µM (inactive); in experiment [4], 36.1 µM (inactive); in experiment [5], 21.8 µM (inactive); in experiment [6] it was 20 µM (inactive). Further, the GI50 in experiment [7] was 51.8 µM (inactive); in [8] it was 22.1 µM (inactive); in [9], 21.8 µM (inactive); in experiment [10], 33.9 µM (inactive); in experiment [11], 23.1 µM (inactive); in experiment [12], > 65.5 µM (inactive). For the same molecule, the GI50 is 23.4 µM (inactive) in [13]; 29.7 µM (inactive) in experiment [18]; 35 µM (inactive) in experiment [14]; 27.7 µM (inactive) in experiment [19]; 14.5 µM (inactive) in experiment [15]; 29.6 µM (inactive) in [16]. The GI50 in [17] was 29.6 µM (inactive).
As for `C/C=C/[C@@H]1[C@H]2C(=O)[C@]3(Cl)[C@@H](/C=C/C)[C@@H]3C(=O)[C@@]12Cl`, the GI50 was 46.8 µM (inactive) in [1]; > 100 µM (inactive) in experiment [2]; 52 µM (inactive) in experiment [3]; > 100 µM (inactive) in experiment [4]; > 100 µM (inactive) in [5]; > 100 µM (inactive) in experiment [6]. Also, the GI50 is 94 µM (inactive) in experiment [7]; > 100 µM (inactive) in experiment [8]; > 100 µM (inactive) in [9]; > 100 µM (inactive) in [10]; > 100 µM (inactive) in [11]; > 100 µM (inactive) in [12]. In addition, the GI50 in experiment [13] is > 100 µM (inactive); in experiment [18], > 100 µM (inactive); in [14], > 100 µM (inactive); in experiment [19], > 100 µM (inactive); in experiment [15], 53.3 µM (inactive); in [16] it was 85.3 µM (inactive). In addition, the GI50 in experiment [17] was > 100 µM (inactive).
On to `O=C(CN1CCCCC1)CC(O)(C(F)(F)F)C(F)(F)F`, for which the GI50 in [1], in experiment [2], in experiment [3], in [4], in experiment [5] and in experiment [6] was > 100 µM (inactive) each time. Besides, the GI50 in experiment [7], in experiment [8], in [9], in experiment [10], in [11] and in experiment [12] was > 100 µM (inactive) in each case. Moreover, the GI50 was > 100 µM (inactive) in experiment [13]; > 100 µM (inactive) in [18]; > 100 µM (inactive) in [14]; 20.5 µM (inactive) in experiment [15]; > 100 µM (inactive) in experiment [16]; > 100 µM (inactive) in experiment [17].
As for `S=C(N/N=C(/c1ccccc1)c1ccccn1)N1CCCCC1`, the GI50 in [1] is < 0.0286 µM (active); in [2], < 0.0302 µM (active); in [3], < 0.0134 µM (active); in [4] it was < 0.0214 µM (active); in experiment [5] it was 0.618 µM (active); in experiment [6], 0.01 µM (active). Besides, the GI50 was 0.546 µM (active) in experiment [7]; < 0.0292 µM (active) in [8]; 0.134 µM (active) in experiment [9]; 0.441 µM (active) in experiment [10]; 1.5 µM (inactive) in experiment [11]; 0.0455 µM (active) in experiment [12]. Also, the GI50 in experiment [13] was < 0.0151 µM (active); in experiment [18] it was < 0.031 µM (active); in experiment [14], < 0.0249 µM (active); in [15], 1.25 µM (inactive); in experiment [16], < 0.0244 µM (active); in experiment [17] it was 0.0716 µM (active).
Turning to `COc1cc(CNC(=O)CCCCCCCCCCSSCCCCCCCCCCC(=O)NCc2ccc(O)c(OC)c2)ccc1O`, the GI50 in experiment [1], in experiment [2], in experiment [3], in [4], in [5] and in experiment [6] was > 10 µM (inactive) throughout. The GI50 in experiment [7], in [8], in [9], in experiment [10], in experiment [11] and in [12] was > 10 µM (inactive) each time. The GI50 in experiment [13], in experiment [18], in experiment [14], in [19], in experiment [15] and in [16] was > 10 µM (inactive) each time.
For `Cc1ccc(/N=C/C=C(\Nc2ccc(C)cc2)c2ccc3ccccc3c2)cc1`, the GI50 in experiment [1] was 0.757 µM (active); in [2], 2.66 µM (inactive); in experiment [3], 0.189 µM (active); in experiment [4], 0.571 µM (active); in [5] it was 1.15 µM (inactive); in [6], 0.34 µM (active). Besides, the GI50 is 10.6 µM (inactive) in experiment [7]; 0.299 µM (active) in experiment [8]; 0.203 µM (active) in experiment [9]; 0.238 µM (active) in experiment [10]; 0.65 µM (active) in [11]; 1.45 µM (inactive) in [12]. Besides, the GI50 in experiment [13] is 1.02 µM (active); in [18], 0.497 µM (active); in [14], 0.482 µM (active); in experiment [15], 0.468 µM (active); in experiment [16], 0.738 µM (active); in experiment [17], 1.07 µM (active).
